Results from patent US20170351014A1, “NEAR-INFRARED ABSORPTION COMPOSITION, CURED FILM, NEAR-INFRARED ABSORPTION FILTER, SOLID-STATE IMAGING DEVICE, AND INFRARED SENSOR” (FUJIFILM Corporation, priority 2015, published 2017).

Tests used:
Assay type in all cases: physicochemical
[1] = Maximum absorption wavelength and absorbance ratio of film formed from near-infrared absorption composition; details: film on glass
Protocol: A near-infrared absorption composition was prepared by mixing according to the following composition.
Each composition was applied to a glass substrate (1737 manufactured by Corning Inc.) using a spin coater, and a heating treatment was performed thereon for 120 seconds using a hot plate at 120° C.
(§1) A maximum absorption wavelength of each film and an absorbance ratio as a value obtained by dividing an absorbance at a wavelength of 555 nm by an absorbance at the maximum absorption wavelength were measured using a spectrophotometer U-4100 (manufactured by Hitachi High-Technologies Corporation).

[2] = Solubility of compound to propylene glycol monomethyl ether acetate (PGMEA); details: PGMEA at 25° C.
Protocol: The solubility of each compound to propylene glycol monomethyl ether acetate (PGMEA) at 25° C. was evaluated based on the following standards.
A: The solubility of the compound to PGMEA at 25° C. is 2 mass % or greater.

[3] = Near-infrared shieldability evaluation of cured film; details: cured film 1.0 μm, Resin 1, transmittance at 785 nm
Protocol: (§2) A near-infrared absorption composition was prepared by mixing according to the following composition. The solid content of the composition was 31 mass %, and the content of the near-infrared absorption substance with respect to the total solid content of the composition was 7.5 mass %.
(§3) Each composition was applied to a glass substrate (1737 manufactured by Corning Inc.) using a spin coater such that a film thickness after drying was 1.0 μm, and a heating treatment (pre-baking) was performed thereon for 120 seconds using a hot plate at 100° C.
(§4) Next, entire surface exposure was performed at 500 mJ/cm2 using an i-ray stepper exposure device FPA-3000i5+(manufactured by Canon Inc.). Next, paddle development was performed for 60 seconds at 23° C. using a developing machine (CD-2060, manufactured by FUJIFILM Electronics Materials Co., Ltd.), and a rinsing treatment was performed with pure water. Then, spray drying was performed thereon. Using a hot plate at 200° C., a heating treatment (post-baking) was performed for 300 seconds to obtain a cured film.
The transmittance of each cured film at the maximum absorption wavelength was measured using a spectrophotometer U-4100 (manufactured by Hitachi High-Technologies Corporation). The near-infrared shieldability was evaluated based on the following standards.
A: Transmittance at 785 nm≦10%
D: 40%<Transmittance at 785 nm

[4] = Visible transparency evaluation of cured film; details: cured film 1.0 μm, Resin 1, minimum transmittance at 500 to 600 nm
Protocol: as §2, §3, §4
The transmittance of each cured film at a wavelength of 500 to 600 nm was measured using a spectrophotometer U-4100 (manufactured by Hitachi High-Technologies Corporation). The visible transparency was evaluated based on the following standards.
A: 80% 5 Minimum value of transmittance at wavelength of 500 to 600 nm
B: 70%: Minimum value of transmittance at wavelength of 500 to 600 nm<80%
C: 60%: Minimum value of transmittance at wavelength of 500 to 600 nm<70%
D: Minimum value of transmittance at wavelength of 500 to 600 nm<60%

[5] = Maximum absorption wavelength and absorbance ratio of cured film; details: cured film 1.0 μm, Resin 1
Protocol: as §1, §2, §3, §4

[6] = Resin A (benzyl methacrylate/methyl methacrylate copolymer), 120° C. 120 seconds

Absorbance Ratio (555 nm/λmax) ([1]; Resin A) | Maximum Absorption Wavelength [1, 6] | Absorbance Ratio (555 nm/λmax) ([1]; Resin B (polycaprolactone)) | Maximum Absorption Wavelength ([1]; Resin B (polycaprolactone)) | Near-Infrared Shieldability [3] | Absorbance Ratio (555 nm/λmax) [5] | Maximum Absorption Wavelength [5] | Solubility (in words) [2] | Compound | Solubility [2] | Visible Transparency [4]
0.11 | 860 nm | 0.11 | 863 nm | D (40%<Transmittance at 785 nm) | 0.12 | 855 nm |  | CCCCCCCCOc1ccc(-c2c3/c(=C(\C#N)c4cc5cc(C(C)(C)C)ccc5cn4)n(B(c4ccccc4)c4ccccc4)c(-c4ccc(OCCCCCCCC)cc4)c3/c(=C(\C#N)c3cc4cc(C(C)(C)C)ccc4cn3)n2B(c2ccccc2)c2ccccc2)cc1 [Compound A-100] | C (The solubility of the compound to PGMEA at 25 °C is less than 0.5 mass %.) | B (70%: Minimum value of transmittance at wavelength of 500 to 600 nm<80%)
0.14 | 790 nm |  |  | B (10%<Transmittance at 785 nm≦25%) | 0.15 | 780 nm |  | COB(OC)n1c(-c2ccccc2-c2ccccc2)c2/c(=C(\C#N)c3nc4ccc(Cl)cc4o3)n(B(OC)OC)c(-c3ccccc3-c3ccccc3)c2/c1=C(\C#N)c1nc2ccc(Cl)cc2o1 [Compound D-5] |  | C (60%: Minimum value of transmittance at wavelength of 500 to 600 nm<70%)
0.10 | 763 nm |  |  | B (10%<Transmittance at 785 nm≦25%) | 0.10 | 762 nm | excellent solubility | CCCCCCCCOc1ccc(-c2c3/c(=C(\C#N)c4nc(C)cc(C)n4)n(B(c4ccccc4)c4ccccc4)c(-c4ccc(OCCCCCCCC)cc4)c3/c(=C(\C#N)c3nc(C)cc(C)n3)n2B(c2ccccc2)c2ccccc2)cc1 [Compound A-12] | B (The solubility of the compound to PGMEA at 25 °C is 0.5 mass % to less than 2 mass %.) | B (70%: Minimum value of transmittance at wavelength of 500 to 600 nm<80%)
